These results are taken from PubChem BioAssay (NCI).

Experiment in all cases: inhibition of tumour cell growth, NCI panel, 48 h
Assay [1] concerns DLD-1 colon.
The subject of assay [2] is DMS 114 small cell lung.
In assay [3] the test system is HOP-92 NSCLC.
For assay [4], the system named is KM20L2 colon.
Assay [5] relates to LXFL 529 NSCLC.
Assay [6] concerns M19-MEL melanoma.
Assay [7] concerns SF-539 CNS.
Assay [8] relates to XF 498 CNS.
Assay [9] deals with HS 578T breast.
The test system of assay [10] is PC-3 prostate.

Structures are written as SMILES. “And” between values parts separate entries of the source, which are not always exact repeats. Equal entries are not always repeated.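 Grown in 96-well plates, cells were treated for 48 hours with each compound at five concentrations. Insufficient inhibition: endpoint recorded as highest concentration tested. GI50 is the concentration that inhibits growth by half. The concentration for full growth arrest is given as TGI.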 Where a SMILES comes first, the peptide text is derived from it. [ ]: non-standard residue; d: D form. NMeY = CN[C@@H](Cc1ccc(O)cc1)C(=O)O; dNMeF = CN[C@H](Cc1ccccc1)C(=O)O; Sar = CNCC(=O)O

Consider `COc1cc(C(=O)C/C(CCC(=O)Nc2ccc(Cl)cc2Cl)=N/NC(=O)C(N)=O)ccc1O`, for which the TGI in [1], in [2], in assay [3], in assay [4], in assay [5] and in assay [6] was more than 100 µM throughout. In addition, the TGI in assay [7] and in assay [8] was more than 100 µM throughout.
As for `CCC[CH2][Sn]([CH2]CCC)([O]C(=O)c1cc(OC)c(OC)cc1OC)[O]C(=O)c1cc(OC)c(OC)cc1OC`, the GI50 in assay [1] was 1.51 µM; in assay [2], 0.492 µM; in assay [5], 0.346 µM; in assay [6], 1.03 µM; in assay [7], 1.02 µM; in assay [8] it was 0.767 µM. In addition, the TGI in [1] is 2.92 µM; in [2], 1.95 µM; in [5], 1.22 µM; in [6], 2.36 µM; in [7] it was 2.23 µM; in [8], 2.16 µM.
As for `Nc1ncnc2c(C3OC(CO)C(O)C3O)[nH]nc12` (stereo unspecified), the TGI in [1] was 10.8 µM; in [2] it was 1.36 µM; in [9], 5.34 µM; in [4] it was 8.26 µM; in assay [6], 80.5 µM; in [10], 8.97 µM. In addition, the TGI is 2.32 µM and 5.87 µM in assay [7]; 1.34 µM in [8]. Moreover, the GI50 was 0.202 µM in assay [3], 0.533 µM in assay [9], 0.0474 µM in assay [10] and 0.271 µM in assay [7].
Take `COc1c(NC(=O)CC(C)=O)[c]([Hg][O]C(C)=O)c(OC)c(Cl)[c]1[Hg][O]C(C)=O`: the GI50 in assay [1] was 14.2 µM; in assay [2], 1.61 µM; in [3] it was 4.13 µM; in assay [4], 14.6 µM; in assay [5] it was 2.63 µM; in assay [6], 12.6 µM. Moreover, the results for the GI50 in assay [7] and in [8] were 2.72 µM and 2.55 µM, respectively. Also, the TGI in [1] was determined as 32.6 µM; in [2], 13.5 µM; in assay [3], 11.6 µM; in assay [4] it was 28.5 µM; in assay [5], 11.1 µM; in assay [6], 25.1 µM. Also, the TGI is 9.7 µM in assay [7] and 6.41 µM in assay [8].
Regarding `Cc1ccc(S(=O)(=O)SCc2ccccc2CSS(=O)(=O)c2ccc(C)cc2)cc1`, the TGI in [1] is 30 µM; in [2], more than 100 µM; in assay [3] it was 51.7 µM; in [4], more than 100 µM; in assay [5] it was 32.6 µM; in [6], 60.3 µM. In addition, the TGI came to 36.2 µM in assay [7] and 47.4 µM in [8].
Consider `O=C(Nc1nc2ccccc2n1Cc1ccc(Cl)cc1)NC12CC3CC(CC(C3)C1)C2`, for which the TGI in assay [1] was more than 100 µM; in assay [2] it was 90.8 µM; in assay [3] it was 56.8 µM; in [4], more than 100 µM; in [5], 72 µM; in [6], more than 100 µM. Also, the TGI was 53.4 µM in [7] and 53.2 µM in [8].
As to `COc1cc(/C=C/c2ccc(OC(C)=O)cc2)cc(OC)c1OC`, the TGI in [1] is more than 100 µM; in assay [2], 94.2 µM; in [3], 80.2 µM; in assay [4], more than 100 µM; in assay [5], more than 100 µM; in assay [6], more than 100 µM. This molecule returned a TGI in assay [7] of 60.8 µM.
On to `CC(=O)C1C(=O)C(=O)N(c2ccccc2N2C(=O)C(=O)C(C(C)=O)C2=O)C1=O` (stereo unspecified), for which the TGI in [1], in [2], in assay [3], in [4], in [5] and in assay [6] was more than 100 µM throughout. In addition, the TGI in [7] was more than 100 µM.
Turning to `CCOC(=O)[C@H]1Nc2ccc(Cl)cc2[C@H]2OCC[C@@H]12`, the TGI in assay [1], in assay [2], in [4], in assay [5], in assay [6] and in [7] was more than 100 µM each time. In addition, in assay [8], the TGI is more than 100 µM.
Regarding `Cc1ccc(NC(=O)CC/C(CC(=O)c2ccc(F)cc2)=N\NC(=O)C(=O)NN)cc1C`, the TGI in assay [1], in assay [2], in [3], in assay [4], in assay [5] and in assay [6] was more than 100 µM throughout. For the same molecule, the TGI in assay [7] was more than 100 µM.
Regarding `CCCCCCCCCC1C(C)c2c([nH]c3ccccc23)C2C(=O)N(c3ccccc3)C(=O)C21` (stereo unspecified), the TGI in [1] was 30.2 µM; in assay [2], 28.4 µM; in assay [4], 24.9 µM; in assay [5] it was 50.4 µM; in [7] it was 40.6 µM; in assay [8], 23.2 µM.
In the case of `Cc1ccccc1NC(=O)C1C(=O)N(c2ccccc2C)C(=O)/C1=N\N` (stereo unspecified), the TGI in assay [1], in [2], in assay [3], in [4], in [5] and in assay [6] was more than 100 µM each time. The molecule further showed a TGI in assay [7] of more than 100 µM.
As for `O=C(O)CCCCCO`, the TGI in assay [1], in assay [2], in assay [3], in [4], in assay [5] and in [6] was more than 100 µM throughout. For the same molecule, the TGI in [7] and in [8] was more than 100 µM in each case.
Regarding `Cc1nc(-c2nc(C)c(C(=O)NN(C)C)s2)sc1C(=O)NN(C)C`, the TGI in assay [1], in assay [3], in assay [4], in assay [5], in assay [6] and in assay [7] was more than 100 µM each time. Also, the TGI in assay [8] was more than 100 µM.
As for `COC(=O)c1c2c(c(-c3ccccc3)c3c1-c1nc(Cl)ccc1CC3)CCc1ccc(Cl)nc1-2`, the TGI in [1], in assay [3], in assay [4], in assay [5], in assay [6] and in assay [7] was more than 100 µM throughout.
Turning to `Nc1ccc2c(c1)CC1c3ccccc3C(C2)c2ccccc21`, the TGI in assay [1], in assay [2], in assay [3], in [4], in [5] and in [6] was more than 100 µM throughout. In assay [7], this molecule displayed a TGI of more than 100 µM.
As for `CC1(O)CC2(O)C=CC3=C(C(=O)c4cccc(O)c4C3=O)C2(O)C(=O)C1O` (stereo unspecified), the TGI in assay [1] stood at 2.31 µM; in assay [2], 3.44 µM; in assay [3], 2.19 µM; in assay [9] it was 10.7 µM; in assay [4], 2.71 µM; in [5] it was 1.08 µM. The TGI stood at 1.76 µM in [6], 17.1 µM in [10] and 10 µM in assay [7].
With `Nc1nc(N)c(N=O)c(Nc2ccc(I)cc2)n1`, the TGI is 21.6 µM in [1]; 64.9 µM in [2]; 80.6 µM in [4]; 60.6 µM in assay [5]; more than 100 µM in assay [6]; 70.4 µM in [7].
In the case of `CC[N+]1(C)CCC(O)(c2ccccc2)C(C(=O)c2ccccc2)C1` (stereo unspecified), the TGI in assay [1] is 27.2 µM; in assay [2], 44.3 µM; in assay [3], 25.4 µM; in assay [9], 74 µM; in assay [4], 44.5 µM; in assay [5], 23.6 µM. Further, the TGI in assay [6] came out at 36 µM; in assay [10], 33.9 µM; in assay [7], 31.3 µM.
`COc1ccc(/C=C2\SC(c3ccc(OC)cc3)N(NC(=O)Cc3ccccc3)C2=O)cc1` (stereo unspecified): the TGI in assay [1], in assay [2], in [3], in [5], in assay [6] and in [7] was more than 100 µM each time.
In the case of `N#CCN1CCOCCOCCN(CC#N)CCOCCOCC1`, the TGI in [1], in assay [2], in assay [3], in [4], in assay [5] and in [6] was more than 100 µM in each case. In addition, the TGI in [7] was more than 100 µM.
With `CCOC(=O)Cn1c(C)c(/C=N/NC(=O)c2cc3c(ccc4ccccc43)o2)c2ccccc21`, the GI50 is 0.354 µM in assay [3], 0.514 µM in [9], 0.332 µM in assay [10] and 0.316 µM in assay [7]. Also, the TGI in assay [3] was found to be 4.94 µM; in [9] it was 25.2 µM; in assay [10] it was 6 µM; in assay [7], 1.28 µM.
Consider `Nc1ncnc2c(C3OC(CO)C(O)C3O)scc12` (stereo unspecified), for which the TGI in assay [2] is 0.548 µM and 0.31 µM; in assay [3], 0.529 µM; in [4], 1.07 µM and 1.64 µM; in [5], 12.9 µM; in [6], 3.4 µM and 2.31 µM; in assay [8] it was 0.353 µM and 0.581 µM. The GI50 in assay [5] was 0.365 µM; in assay [6] it was 0.147 µM.
Regarding `CC[C@H](C)[C@@H]1NC(=O)[C@H](Cc2ccc(O)cc2)N(C)C(=O)[C@H](Cc2ccccc2)NC(=O)CN(C)C(=O)[C@@H]2CCCN2C(=O)[C@@H](Cc2ccccc2)N(C)C(=O)[C@H](CC(C)C)NC1=O` (cyclo(F[NMeY]IL[dNMeF]P[Sar])), the GI50 in [3] is 0.198 µM; in assay [9], 0.137 µM; in assay [10] it was 0.28 µM; in assay [7], 0.287 µM. For the same molecule, the TGI stood at 4.83 µM in assay [3], 1.25 µM in assay [9], 6.21 µM in [10] and 2.61 µM in assay [7].
Take `COc1cccc(-n2ncc3c(N/N=C/c4ccc(S(C)(=O)=O)cc4)ncnc32)c1`: the GI50 in [3] is 7.36 µM; in [9], 0.608 µM; in assay [10], 6.63 µM; in assay [7], 6.22 µM. Further, the TGI in assay [3] was 18.7 µM; in assay [9] it was 7.34 µM; in assay [10], more than 20.9 µM; in [7], more than 25 µM.
As for `CCOC(=O)C(Cc1ccccc1)NC(=O)OC(C)(C)C` (stereo unspecified), the TGI in [1], in [2], in [3], in assay [5], in assay [6] and in [7] was more than 100 µM each time. Moreover, the TGI in [8] was more than 100 µM.
For the molecule `CCOC(=O)N1N=NC2C3OC(C[C@@]3(C#N)OC(C)=O)[C@H]21` (stereo partly specified), the TGI in assay [1], in assay [3], in assay [4], in assay [5], in [6] and in assay [7] was more than 100 µM in each case. This molecule yielded a TGI in [8] of more than 100 µM.
For the molecule `C[C@]12CCC3c4ccc(O)cc4CCC3C1Cc1ccc(O)cc12` (stereo partly specified), the GI50 in [3] is 12.7 µM; in assay [9], 5.87 µM; in assay [10] it was 7.25 µM; in assay [7], 6.08 µM. The TGI was found to be 27.9 µM in assay [3], 42.6 µM in [9], 22.4 µM in [10] and 20.8 µM in assay [7].
Take `Cc1c(C(=O)/C=C/c2ccccc2Cl)[n+](=O)c2ccccc2n1[O-]`: the TGI was found to be 19.8 µM in assay [1]; 20.1 µM in assay [2]; 28.7 µM in [3]; 30.6 µM in assay [4]; 20 µM in [5]; 29.1 µM in assay [6]. The same molecule registered a TGI in [7] of 29.4 µM.
Consider `NCCCC1NC(=O)/C(=C(O)/C=C/C2CCC[C@@H]2CC2SCCS2)C1=O` (stereo partly specified), for which the TGI is more than 100 µM in assay [1]; more than 100 µM in assay [2]; 99.8 µM in [3]; more than 100 µM in assay [4]; more than 100 µM in [5]; more than 100 µM in assay [6]. Moreover, in assay [7], the TGI was more than 100 µM.
`C#C[C@@]1(O)[C@@H](CO)O[C@@H](n2ccc3c(N)ncnc32)[C@@H]1O`: the GI50 was 2.04 µM in assay [3], 4.67 µM in assay [9], 0.808 µM in assay [10] and 1.9 µM in [7]. Moreover, the TGI in assay [3] is 5.56 µM; in [9] it was more than 100 µM; in assay [10], 3.54 µM; in assay [7] it was 4.44 µM.
